In test [1] the target is T1, Recombinant His-tagged NAMPT (Homo sapiens, UniProt P43490).
T1 construct: His; host or cells: E. coli
Description: Biochemical inhibition assay: NAMPT enzymatic reaction, NMN quantified by mass spectrometry. To be noted: 33 nM NAMPT, 1 μM NAM, 100 μM PRPP, 2.5 mM ATP, 30 minutes at room temperature; read-out: Biochem IC50. Put shortly:
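Reaction 30 min at room temperature with 1 μM NAM, 100 μM PRPP, 2.5 mM ATP (final), quenched with formic acid. NMN quantified by RapidFire electrospray MS, normalized to L-cystathionine; IC50 from percent inhibition versus DMSO.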

The subject of another test is A2780 cells. Description: In-vitro cell proliferation assay (SRB, 72 hours). The format is cell-based. The conditions noted are these: Homo sapiens, sulforhodamine B (SRB) assay. Put shortly:
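Viable cells measured by TCA fixation and SRB staining, absorbance 570 nm; % inhibition vs DMSO control after media-only background subtraction, interpolated between two bracketing concentrations.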

The record followed here is patent publication US9555039B2, “Piperidine derivatives and compositions for the inhibition of nicotinamide phosphoribosyltransferase (NAMPT)” (Forma TM, LLC., priority 2011, dated 2017).

T1 sequence (P43490 whole entry): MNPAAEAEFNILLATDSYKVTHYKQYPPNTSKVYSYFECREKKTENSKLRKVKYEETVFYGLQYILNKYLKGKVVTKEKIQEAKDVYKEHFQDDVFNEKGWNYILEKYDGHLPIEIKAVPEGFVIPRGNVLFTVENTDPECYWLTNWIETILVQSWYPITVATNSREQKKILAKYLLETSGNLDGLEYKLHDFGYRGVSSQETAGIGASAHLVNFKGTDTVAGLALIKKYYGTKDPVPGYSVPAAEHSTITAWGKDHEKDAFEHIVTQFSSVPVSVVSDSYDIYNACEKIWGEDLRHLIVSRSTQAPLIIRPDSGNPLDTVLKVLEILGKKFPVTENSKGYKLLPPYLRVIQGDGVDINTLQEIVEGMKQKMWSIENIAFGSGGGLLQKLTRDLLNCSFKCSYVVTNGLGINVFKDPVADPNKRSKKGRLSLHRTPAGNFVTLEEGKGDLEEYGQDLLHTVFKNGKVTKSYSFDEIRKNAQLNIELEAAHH

A word on the IC50: it is the concentration at which inhibition is half-maximal. `O=C(NCCCCC1CCN(C(=O)c2ccc(F)cc2F)CC1)c1ccc2nccn2c1` [N-(4-{1-[(2,4-difluorophenyl)carbonyl]piperidin-4-yl}butyl)imidazo[1,2-a]pyridine-6-carboxamide]: the results for the half-inhibitory concentration (IC50) (in test [1]; with A2780 cells) were 7.1 nM and 25.6 nM, respectively.

For `COc1cccc(C(=O)N2CCN(CCCCNC(=O)c3cc4cnccc4[nH]3)CC2)c1` [N-(4-{4-[(3-methoxyphenyl)carbonyl]piperazin-1-yl}butyl)-1H-pyrrolo[3,2-c]pyridine-2-carboxamide], the values for the IC50 (in test [1]; with A2780 cells) were 436 nM and 855 nM, respectively.

As for `O=C(NCCCCC1CCN(C(=O)c2ccc(N3CCOCC3)nc2)CC1)c1cc2cnccc2[nH]1` [N-[4-(1-{[6-(morpholin-4-yl)pyridin-3-yl]carbonyl}piperidin-4-yl)butyl]-1H-pyrrolo[3,2-c]pyridine-2-carboxamide], the results for the IC50 (in test [1]; in the test with A2780 cells) were 64.7 nM and 3.4 nM, respectively.

As for `O=C(NCCCCC1CCN(C(=O)c2ccc(N3CCOCC3)nc2)CC1)c1cc2ccncc2s1` [N-[4-(1-{[6-(morpholin-4-yl)pyridin-3-yl]carbonyl}piperidin-4-yl)butyl]thieno[2,3-c]pyridine-2-carboxamide], the IC50 in test [1] was 30.1 nM; in the test with A2780 cells, 13.1 nM.

`Cc1cnc(C(=O)N2CCC(CCCCNC(=O)c3ccc4nccn4c3)CC2)cn1` [N-(4-{1-[(5-methylpyrazin-2-yl)carbonyl]piperidin-4-yl}butyl)imidazo[1,2-a]pyridine-6-carboxamide]: the 50% inhibitory concentration (IC50) turned out to be 10.9 nM in test [1] and 66.7 nM with A2780 cells.

Consider `COc1ccc(OC)c(C(=O)N2CCC(CCCCNC(=O)c3cc4cnccc4[nH]3)CC2)c1` [N-(4-{1-[(2,5-dimethoxyphenyl)carbonyl]piperidin-4-yl}butyl)-1H-pyrrolo[3,2-c]pyridine-2-carboxamide], for which the results for the half-inhibitory concentration (IC50) (in test [1]; in the test on A2780 cells) were 15.5 nM and 2.2 nM, respectively.

Turning to `COc1ncc(Cl)cc1C(=O)N1CCC(CCCCNC(=O)c2cc3ccncc3s2)CC1` [N-(4-{1-[(5-chloro-2-methoxypyridin-3-yl)carbonyl]piperidin-4-yl}butyl)thieno[2,3-c]pyridine-2-carboxamide], the values for the IC50 (in test [1]; in the test with A2780 cells) were 17 nM and 7.1 nM, respectively.

For the compound `O=C(NCCCCC1CCN(C(=O)c2csc(-c3ccccc3)n2)CC1)c1cc2ccncc2s1` [N-(4-{1-[(2-phenyl-1,3-thiazol-4-yl)carbonyl]piperidin-4-yl}butyl)thieno[2,3-c]pyridine-2-carboxamide], the IC50 was 13.1 nM in test [1] and 76.2 nM in the test with A2780 cells.

Turning to `O=C(NCCCCC1CCN(C(=O)c2ccccc2F)CC1)c1ccc2nccn2c1` [N-(4-{1-[(2-fluorophenyl)carbonyl]piperidin-4-yl}butyl)imidazo[1,2-a]pyridine-6-carboxamide], the values for the 50% inhibitory concentration (IC50) (in test [1]; in the test with A2780 cells) were 3.8 nM and 0.5 nM, respectively.

`Cc1nc(C(=O)N2CCC(CCCCNC(=O)c3cc4ccncc4s3)CC2)cs1` [N-(4-{1-[(2-methyl-1,3-thiazol-4-yl)carbonyl]piperidin-4-yl}butyl)thieno[2,3-c]pyridine-2-carboxamide]: the values for the concentration for half-maximal inhibition (IC50) (in test [1]; in the test on A2780 cells) were 22.4 nM and 100 to 1000 nM, respectively.

With `O=C(NCCCCC1CCN(C(=O)c2cc3cc(F)ccc3[nH]2)CC1)c1cc2ccncc2s1` [N-(4-{1-[(5-fluoro-1H-indol-2-yl)carbonyl]piperidin-4-yl}butyl)thieno[2,3-c]pyridine-2-carboxamide], the values for the 50% inhibitory concentration (IC50) (in test [1]; in the test with A2780 cells) were 30.4 nM and 1000 to 10000 nM, respectively.

Take `O=C(NCCCCC1CCN(C(=O)c2ccc3ncsc3c2)CC1)c1cc2ccncc2s1` [N-(4-{1-[(1,3-benzothiazol-6-yl)carbonyl]piperidin-4-yl}butyl)thieno[2,3-c]pyridine-2-carboxamide]: the half-inhibitory concentration (IC50) turned out to be 32.3 nM in test [1] and 35.4 nM with A2780 cells.

For the compound `O=C(NCCCCC1CCN(C(=O)c2cc(Cl)ccc2Cl)CC1)c1cc2ccncc2s1` [N-(4-{1-[(2,5-dichlorophenyl)carbonyl]piperidin-4-yl}butyl)thieno[2,3-c]pyridine-2-carboxamide], the 50% inhibitory concentration (IC50) was determined as 16 nM in test [1] and 7.1 nM in the test with A2780 cells.

`Cc1ccc(C(=O)N2CCC(CCCCNC(=O)c3cc4ccncc4s3)CC2)cc1F` [N-(4-{1-[(3-fluoro-4-methylphenyl)carbonyl]piperidin-4-yl}butyl)thieno[2,3-c]pyridine-2-carboxamide]: the IC50 in test [1] was 41.7 nM; in the test with A2780 cells, 100 to 1000 nM.

As to `COc1ccc(C(=O)N2CCC(CCCCNC(=O)c3cc4cnccc4[nH]3)CC2)cc1` [N-(4-{1-[(4-methoxyphenyl)carbonyl]piperidin-4-yl}butyl)-1H-pyrrolo[3,2-c]pyridine-2-carboxamide], the figures for the 50% inhibitory concentration (IC50) (in test [1]; with A2780 cells) were 79.7 nM and 16.3 nM, respectively.

As to `O=C(NCCCCC1CCN(C(=O)c2cccc(Cl)c2)CC1)c1ccc2nccn2c1` [N-(4-{1-[(3-chlorophenyl)carbonyl]piperidin-4-yl}butyl)imidazo[1,2-a]pyridine-6-carboxamide], the concentration for half-maximal inhibition (IC50) in test [1] worked out at 17.1 nM; in the test on A2780 cells, 22.3 nM.

In the case of `O=C(NCCCCC1CCN(C(=O)C2CCCCC2)CC1)c1ccc2nccn2c1` [N-[4-(1-cyclohexanecarbonylpiperidin-4-yl)butyl]imidazo[1,2-a]pyridine-6-carboxamide], the IC50 was found to be 18.1 nM in test [1] and 0.9 nM in the test on A2780 cells.

`COc1ccc(Cl)cc1C(=O)N1CCC(CCCCNC(=O)c2cc3ccncc3s2)CC1` [N-(4-{1-[(5-chloro-2-methoxyphenyl)carbonyl]piperidin-4-yl}butyl)thieno[2,3-c]pyridine-2-carboxamide]: the figures for the IC50 (in test [1]; in the test with A2780 cells) were 14.1 nM and 3.3 nM, respectively.

Turning to `Cc1nc(CC(=O)N2CCC(CCCCNC(=O)c3cc4ccncc4s3)CC2)cs1` [N-(4-{1-[2-(2-methyl-1,3-thiazol-4-yl)acetyl]piperidin-4-yl}butyl)thieno[2,3-c]pyridine-2-carboxamide], the half-inhibitory concentration (IC50) in test [1] stood at 13.5 nM; with A2780 cells it was 28.2 nM.

As for `Cc1cnc(C(=O)N2CCC(CCCCNC(=O)c3cc4cnccc4[nH]3)CC2)cn1` [N-(4-{1-[(5-methylpyrazin-2-yl)carbonyl]piperidin-4-yl}butyl)-1H-pyrrolo[3,2-c]pyridine-2-carboxamide], the 50% inhibitory concentration (IC50) in test [1] was 115 nM; with A2780 cells, 23.8 nM.

As for `O=C(NCCCCC1CCN(C(=O)c2ccccc2)CC1)c1ccc2nccn2c1` [N-[4-(1-benzoylpiperidin-4-yl)butyl]imidazo[1,2-a]pyridine-6-carboxamide], the values for the IC50 (in test [1]; in the test with A2780 cells) were 5.5 nM and 5.7 nM, respectively.

With `COc1ccc(Cl)cc1C(=O)N1CCC(CCCCNC(=O)c2ccc3nccn3c2)CC1` [N-(4-{1-[(5-chloro-2-methoxyphenyl)carbonyl]piperidin-4-yl}butyl)imidazo[1,2-a]pyridine-6-carboxamide], the values for the IC50 (in test [1]; in the test on A2780 cells) were 10.5 nM and 3.1 nM, respectively.

With `O=C(NCCCCC1CCN(S(=O)(=O)c2ccccc2)CC1)c1cc2cnccc2[nH]1` [N-{4-[1-(benzenesulfonyl)piperidin-4-yl]butyl}-1H-pyrrolo[3,2-c]pyridine-2-carboxamide], the half-maximal inhibitory concentration (IC50) in test [1] is 24.9 nM; in the test with A2780 cells, 6.7 nM.

With `O=C(NCCCCC1CCN(C(=O)c2ccc3c(c2)OCO3)CC1)c1ccc2nccn2c1` [N-(4-{1-[(2H-1,3-benzodioxol-5-yl)carbonyl]piperidin-4-yl}butyl)imidazo[1,2-a]pyridine-6-carboxamide], the IC50 came to 21.3 nM in test [1] and 29.2 nM with A2780 cells.

Regarding `O=C(NCCCCC1CCN(C(=O)c2ccc(C(F)(F)F)cn2)CC1)c1cc2ccncc2s1` [N-[4-(1-{[5-(trifluoromethyl)pyridin-2-yl]carbonyl}piperidin-4-yl)butyl]thieno[2,3-c]pyridine-2-carboxamide], the figures for the half-inhibitory concentration (IC50) (in test [1]; with A2780 cells) were 91.8 nM and 100 to 1000 nM, respectively.

Regarding `O=C(NCCCCC1CCN(C(=O)c2ccc(OC(F)F)cc2)CC1)c1cc2ccncc2s1` [N-[4-(1-{[4-(difluoromethoxy)phenyl]carbonyl}piperidin-4-yl)butyl]thieno[2,3-c]pyridine-2-carboxamide], the IC50 in test [1] is 77.4 nM; in the test on A2780 cells it was 100 to 1000 nM.

For `O=C(NCCCCC1CCN(C(=O)c2ccc(C(F)(F)F)nc2)CC1)c1cc2cnccc2[nH]1` [N-[4-(1-{[6-(trifluoromethyl)pyridin-3-yl]carbonyl}piperidin-4-yl)butyl]-1H-pyrrolo[3,2-c]pyridine-2-carboxamide], the IC50 was determined as 278 nM in test [1] and 47.6 nM in the test on A2780 cells.

On to `O=C(NCCCCC1CCN(C(=O)c2ccc(Cl)c(Cl)c2)CC1)c1cc2ccncc2s1` [N-(4-{1-[(3,4-dichlorophenyl)carbonyl]piperidin-4-yl}butyl)thieno[2,3-c]pyridine-2-carboxamide], for which the IC50 in test [1] was 34.5 nM; with A2780 cells, 100 to 1000 nM.

`O=C(NCCCCC1CCN(C(=O)c2ccc(Cl)c(Cl)c2)CC1)c1cc2cnccc2[nH]1` [N-(4-{1-[(3,4-dichlorophenyl)carbonyl]piperidin-4-yl}butyl)-1H-pyrrolo[3,2-c]pyridine-2-carboxamide]: the concentration for half-maximal inhibition (IC50) in test [1] came out at 93 nM; in the test with A2780 cells it was 58 nM.

On to `Cc1ncsc1C(=O)N1CCC(CCCCNC(=O)c2ccc3nccn3c2)CC1` [N-(4-{1-[(4-methyl-1,3-thiazol-5-yl)carbonyl]piperidin-4-yl}butyl)imidazo[1,2-a]pyridine-6-carboxamide], for which the IC50 was found to be 2.9 nM in test [1] and 0.8 nM with A2780 cells.

As for `O=C(NCCCCC1CCN(C(=O)c2ccc(Cl)cc2Cl)CC1)c1cc2ccncc2s1` [N-(4-{1-[(2,4-dichlorophenyl)carbonyl]piperidin-4-yl}butyl)thieno[2,3-c]pyridine-2-carboxamide], the IC50 in test [1] came out at 41 nM; in the test on A2780 cells, 86.1 nM.
